According to ChEMBL document CHEMBL4627296, “Enhanced cellular uptake efficiency of DCM probes or SN38 conjugating with phenylboronic acids” (Bioorg Med Chem, 2020):

How the values were obtained:
[1] = Drug uptake in human HepG2 cells at 10 uM measured after 1 hr by fluorescence analysis; type: ADME, cell-based; details: hepg2, 1 h
[2] = Drug uptake in human HepG2 cells assessed as mean fluorescence intensity at 10 uM measured after 1 hr by flow cytometry analysis (reference value: 2.74); type: ADME, cell-based; details: hepg2, 1 h
[3] = Solubility of the compound in water; type: physicochemical; details: buffer
[4] = Drug uptake in human A549 cells at 10 uM measured after 24 hrs by confocal laser scanning microscopic analysis; type: ADME, cell-based; details: a549, 24 h
[5] = Drug uptake in human HepG2 cells at 10 uM measured after 24 hrs by confocal laser scanning microscopic analysis; type: ADME, cell-based; details: hepg2, 24 h
HepG2 [6] = assay: Antiproliferative activity against human HepG2 cells assessed as inhibition of cell proliferation after 72 hrs by MTT assay; type: functional, cell-based; details: HepG2, 72 h
HepG2 [7] = assay: Potency index, ratio of compound uptake to irinotecan uptake in human HepG2 cells at 10 uM measured after 24 hrs by microplate reader analysis; type: ADME, cell-based; details: hepg2, 24 h
[8] = Drug metabolism in human HepG2 cells assessed as SN38 release at 10 uM measured after 24 hrs by microplate reader analysis; type: ADME, cell-based; details: hepg2, 24 h

Compound | Drug uptake [1] | Flu intensity [2] | solubility [3] | Drug uptake [4] | Drug uptake [5] | IC50 (HepG2 [6]) | Ratio (HepG2 [7]) | Drug metabolism [8]
CCN(CCn1cc(COCCOCCOCCOCCNC(=O)c2ccc(B(O)O)cc2)nn1)c1ccc(/C=C/C2=CC(=C(C#N)C#N)c3ccccc3O2)cc1 | Active | 99.42 | – | – | – | – | – | –
CCN(CCn1cc(COCCOCCOCCOCCNC(=O)Nc2ccc3c(c2)B(O)OC3)nn1)c1ccc(/C=C/C2=CC(=C(C#N)C#N)c3ccccc3O2)cc1 | Active | 86.91 | – | – | – | – | – | –
CCN(CCn1cc(COCCOCCOCCOCCNC(=O)c2cccc([N+](=O)[O-])c2)nn1)c1ccc(/C=C/C2=CC(=C(C#N)C#N)c3ccccc3O2)cc1 | Active | 28.12 | Soluble | – | – | – | – | –
CCc1c2c(nc3ccc(OC(=O)N4CCC(CNC(=O)Nc5ccc6c(c5)B(O)OC6)CC4)cc13)-c1cc3c(c(=O)n1C2)COC(=O)[C@]3(O)CC | – | – | – | Active | Active | 840 nM | 3 | Metabolite_Notdetected
CCc1c2c(nc3ccc(OC(=O)N4CCC(CNC(=O)c5ccc(B(O)O)cc5)CC4)cc13)-c1cc3c(c(=O)n1C2)COC(=O)[C@]3(O)CC | – | – | – | Active | Active | 1590 nM | 7 | Metabolite_Notdetected
CCN(CCn1cc(COCCOCCOCCOCCO)nn1)c1ccc(/C=C/C2=CC(=C(C#N)C#N)c3ccccc3O2)cc1 | Active | 64.89 | Soluble | – | – | – | – | –
CCN(CCn1cc(COCCOCCOCCOCCNC(=O)c2cc(B(O)O)cc([N+](=O)[O-])c2)nn1)c1ccc(/C=C/C2=CC(=C(C#N)C#N)c3ccccc3O2)cc1 | Active | 11.83 | – | – | – | – | – | –
CCc1c2c(nc3ccc(OC(=O)N4CCC(N5CCCCC5)CC4)cc13)-c1cc3c(c(=O)n1C2)COC(=O)[C@]3(O)CC | – | – | – | – | – | 950 nM | – | –
